Source: patent publication US7851474B2, “Dipiperazinyl ketones and related analogues” (Neurogen Corporation, priority 2005, dated 2010)
Like-named read-outs stand apart in the source and are kept apart here.

Legend:
[1] = target: T1, chimeric human H3 receptor (Homo sapiens, UniProt Q9Y5N1, E19D); assay: Chimeric human H3 receptor screening GTP binding assay (inhibition of histamine-stimulated GTP-gamma35S binding, Example 8); type: biochemical; conditions: 1 h, assay of Example 8, read-out: percent inhibition of agonist-induced GTP-gammaS binding to H3
T1 construct: made in house; host or cells: Sf9 insect cells (baculovirus infection); P2 membrane preparation
T1 sequence (Q9Y5N1 with tags, fused parts or gaps E19D): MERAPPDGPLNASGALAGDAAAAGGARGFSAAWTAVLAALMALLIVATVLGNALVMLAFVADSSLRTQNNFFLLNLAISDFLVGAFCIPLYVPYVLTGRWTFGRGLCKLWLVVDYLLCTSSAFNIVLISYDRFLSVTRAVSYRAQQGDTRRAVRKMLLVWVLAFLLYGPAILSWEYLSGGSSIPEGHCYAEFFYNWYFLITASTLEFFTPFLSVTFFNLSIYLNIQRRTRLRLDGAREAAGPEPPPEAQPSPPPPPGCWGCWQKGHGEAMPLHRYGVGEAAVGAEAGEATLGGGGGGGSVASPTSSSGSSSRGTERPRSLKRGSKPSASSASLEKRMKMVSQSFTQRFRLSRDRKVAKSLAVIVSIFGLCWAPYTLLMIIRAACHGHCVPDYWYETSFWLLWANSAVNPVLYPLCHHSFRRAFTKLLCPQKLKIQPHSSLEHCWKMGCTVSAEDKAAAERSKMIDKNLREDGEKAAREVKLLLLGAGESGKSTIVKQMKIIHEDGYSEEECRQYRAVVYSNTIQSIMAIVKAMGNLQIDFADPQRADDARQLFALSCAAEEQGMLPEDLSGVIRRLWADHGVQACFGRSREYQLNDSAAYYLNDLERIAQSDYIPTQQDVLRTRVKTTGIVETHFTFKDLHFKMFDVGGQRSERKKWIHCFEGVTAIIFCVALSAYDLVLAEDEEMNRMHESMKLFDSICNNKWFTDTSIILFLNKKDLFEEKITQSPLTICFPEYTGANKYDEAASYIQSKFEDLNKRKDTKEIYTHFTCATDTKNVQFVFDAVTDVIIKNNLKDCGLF
Experimental: This Example illustrates a representative screening assay for evaluating inhibition of histamine-stimulated GTP-gamma^35S binding. Such GTP binding activity can be used to identify H3 antagonists and inverse agonists. A compound analyzed in this assay is referred to herein as a “test compound,” and the initial identification of antagonists and inverse agonists is performed using a test compound concentration of 4 μM.
Four independent baculoviral stocks (one directing the expression of the chimeric human H3 receptor and three directing the expression of each of the three subunits of a heterotrimeric G-protein) are used to infect a culture of Sf9 cells as described above. P2 membranes are prepared as described above, and are resuspended by Dounce homogenization (tight pestle) in GTP binding assay buffer (50 mM Tris pH 7.4, 120 mM NaCl, 5 mM MgCl2, 2 mM EGTA, 1 mg/ml BSA, 0.2 mg/ml bacitracin, 0.02 mg/ml aprotinin, 0.01 mg/ml saponin, 10 μM GDP) and added to assay tubes at a concentration of 35 μg protein/reaction tube. Non-radiolabeled test compounds are added to separate reactions at a concentration of 4 μM along with 1 μM histamine (agonist). Reactions are initiated by the addition of 125 pM GTP-gamma^35S with a final assay volume of 0.20 ml.
After a 60-min incubation at room temperature, reactions are terminated by vacuum filtration over GF/C filters (pre-soaked in 50 mM Tris pH 7.4, 120 mM NaCl plus 0.1% BSA) followed by washing with ice-cold buffer (50 mM Tris pH 7.4, 120 mM NaCl). The amount of receptor-bound (and thereby membrane-bound) GTP-gamma^35S is determined by measuring the bound radioactivity, preferably by liquid scintillation spectrometry of the washed filters. Non-specific binding is determined using 10 uM GTP-gammaS and typically represents less than 5 percent of total binding. After subtraction of non-specific binding, data is expressed as percent inhibition of 1 μM histamine signal.
Neutral antagonists are those test compounds that reduce the histamine-stimulated GTP binding activity towards, but not below, baseline levels. In contrast, in the absence of added histamine, inverse agonists reduce the GTP binding activity of the receptor-containing membranes below baseline. Any test compound that elevates GTP binding activity above baseline in the absence of added histamine in this assay is defined as having agonist activity.

[2] = target: T1, chimeric human H3 receptor; assay: Chimeric human H3 receptor GTP binding assay (agonist-stimulated GTP-gamma35S binding, Example 7); type: biochemical
Outline: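 IC50 values come from non-linear regression of dose-response curves of filter-bound GTP-gamma^35S, counted by scintillation. Membranes were from infected Sf9 cells carrying receptor plus G-protein subunits, 35 μg/tube, with 10 μM GDP present.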

[3] = Table II, "+" in the column headed Ki
[4] = Table II, assay of Example 7, "*" in Ki, read-out: Ki
[5] = Table II "Ki", symbol "*": Ki in the assay of Example 7, read-out: Ki
[6] = Table II, "*" in Ki, assay of Example 7, read-out: Ki
[7] = assay of Example 7, symbol * in column headed Ki of Table II, read-out: Ki
[8] = "*" in Ki of Table II, assay of Example 7, read-out: Ki

Compound: O=C(CN1CCN(C(=O)c2cccc(F)c2)CC1)N1CCN(C2CCC2)CC1 [Compound 752, 1-cyclobutyl-4-{[4-(3-fluorobenzoyl)piperazin-1-yl]acetyl}piperazine]
- inhibition at 4 µM [1, 3]: > 90%

Compound: O=C(CN1CCN(C(=O)c2ccc(C(F)(F)F)cc2)CC1)N1CCN(C2CCC2)CC1 [Compound 605, 1-cyclobutyl-4-({4-[4-(trifluoromethyl)benzoyl]piperazin-1-yl}acetyl)piperazine]
- inhibition at 4 µM [1, 3]: > 90%

Compound: COc1ccc(/C=C/C(=O)N2CCN(CC(=O)N3CCN(C4CCC4)CC3)CC2)c(OC)c1OC [Compound 515, 1-cyclobutyl-4-({4-[(2E)-3-(2,3,4-trimethoxyphenyl)prop-2-enoyl]piperazin-1-yl}acetyl)piperazine]
- inhibition at 4 µM ([1]; "+" in Ki of Table II): > 90%

Compound: COCCN(C(=O)c1ccc(N2CCN(CC(=O)N3CCN(C4CCC4)CC3)CC2)cc1)C(C)C [Compound 1130, 4-{4-[2-(4-cyclobutylpiperazin-1-yl)-2-oxoethyl]piperazin-1-yl}-N-isopropyl-N-(2-methoxyethyl)benzamide]
- Ki [2, 4]: < 1000 nM

Compound: COc1cccc(N2CCN(CC(=O)N3CCN(C4CCCCC4)CC3)CC2)c1 [Compound 820, 1-cyclohexyl-4-{[4-(3-methoxyphenyl)piperazin-1-yl]acetyl}piperazine]
- Ki [2, 5]: < 1000 nM

Compound: CCOc1cccc(-c2ccc(N3CCN(CC(=O)N4CCN(C5CCC5)CC4)CC3)cc2)c1 [Compound 746, 1-cyclobutyl-4-{[4-(3′-ethoxybiphenyl-4-yl)piperazin-1-yl]acetyl}piperazine]
- Ki [2, 6]: < 1000 nM

Compound: O=C(CN1CCC2(CC1)C(=O)N(c1ccccn1)c1ccccc12)N1CCN(C2CCC2)CC1 [Compound 424, 1′-[2-(4-cyclobutylpiperazin-1-yl)-2-oxoethyl]-1-pyridin-2-ylspiro[indole-3,4′-piperidin]-2(1H)-one]
- Ki [2, 7]: < 1000 nM

Compound: O=C(CN1CCN(c2ccc(Cl)cc2)CC1)N1CCN(C2CCCCC2)CC1 [Compound 357, 1-(4-chlorophenyl)-4-[2-(4-cyclohexylpiperazin-1-yl)-2-oxoethyl]piperazine]
- Ki [2, 7]: < 1000 nM

Compound: Cc1cccc(C)c1-c1ccc(N2CCN(CC(=O)N3CCN(C4CCC4)CC3)CC2)nn1 [Compound 1059, 3-{4-[2-(4-cyclobutylpiperazin-1-yl)-2-oxoethyl]piperazin-1-yl}-6-(2,6-dimethylphenyl) pyridazine]
- Ki [2, 4]: < 1000 nM

Compound: CCC(C)N1CCN(C(=O)CN2CCN(c3ccccc3F)CC2)CC1 (centres unmarked) [Compound 867, 1-sec-butyl-4-{[4-(2-fluorophenyl)piperazin-1-yl]acetyl}piperazine]
- Ki [2]: < 1000 nM

Compound: COc1ccc(CN2Cc3cccnc3C23CCN(CC(=O)N2CCN(C4CCC4)CC2)CC3)c(OC)c1 [Compound 429, 1-[2-(4-cyclobutylpiperazin-1-yl)-2-oxoethyl]-6′-(2,4-dimethoxybenzyl)-5′,6′-dihydrospiro[piperidine-4,7′-pyrrolo[3,4-b]pyridine]]
- Ki [2, 7]: < 1000 nM

Compound: O=C(NC1CCN(CC(=O)N2CCN(C3CCC3)CC2)C1)c1ccc(-c2ccccc2)cc1 (centres unmarked) [Compound 1254, N-{1-[2-(4-cyclobutylpiperazin-1-yl)-2-oxoethyl]pyrrolidin-3-yl}biphenyl-4-carboxamide]
- Ki ([2]; assay of Example 7, "*" in Ki of Table II, read-out: Ki): < 1000 nM

Compound: CC(C)Oc1cccc(-c2ccc(N3CCN(CC(=O)N4CCN(C5CCC5)CC4)CC3)nn2)c1 [Compound 1030, 3-{4-[2-(4-cyclobutylpiperazin-1-yl)-2-oxoethyl]piperazin-1-yl}-6-(3-isopropoxyphenyl) pyridazine]
- Ki [2, 4]: < 1000 nM

Compound: CC(=O)c1cccc(-c2ccc(N3CCN(CC(=O)N4CCN(C5CCC5)CC4)CC3)nn2)c1 [Compound 455, 1-[3-(6-{4-[2-(4-cyclobutylpiperazin-1-yl)-2-oxoethyl]piperazin-1-yl}pyridazin-3-yl)phenyl]ethanone]
- Ki [2, 8]: < 1000 nM

Compound: CCC(C)N1CCN(C(=O)CN2CCN(c3cccc(Cl)c3Cl)CC2)CC1 (centres unmarked) [Compound 859, 1-sec-butyl-4-{[4-(2,3-dichlorophenyl)piperazin-1-yl]acetyl}piperazine]
- Ki [2, 5]: < 1000 nM

Compound: Cc1ccc(F)c(-c2ccc(N3CCN(CC(=O)N4CCN(C5CCC5)CC4)CC3)nn2)c1 [Compound 1008, 3-{4-[2-(4-cyclobutylpiperazin-1-yl)-2-oxoethyl]piperazin-1-yl}-6-(2-fluoro-5-methylphenyl)pyridazine]
- Ki [2, 4]: < 1000 nM

Compound: CC1CN(c2ccc(C(F)(F)F)cn2)CCN1CC(=O)N1CCN(C2CCC2)CC1 (centres unmarked) [Compound 427, 1-[2-(4-cyclobutylpiperazin-1-yl)-2-oxoethyl]-2-methyl-4-[5-(trifluoromethyl)pyridin-2-yl]piperazine]
- Ki [2, 7]: < 1000 nM

Compound: O=C(CN1CCN(c2ccc(-c3ccc4ccccc4c3)nn2)CC1)N1CCN(C2CCC2)CC1 [Compound 1006, 3-{4-[2-(4-cyclobutylpiperazin-1-yl)-2-oxoethyl]piperazin-1-yl}-6-(2-naphthyl)pyridazine]
- Ki [2, 4]: < 1000 nM

Compound: O=C(CN1CCN(c2ccc(-c3ccc(F)c(F)c3)nn2)CC1)N1CCN(C2CCC2)CC1 [Compound 1049, 3-{4-[2-(4-cyclobutylpiperazin-1-yl)-2-oxoethyl]piperazin-1-yl}-6-(3,4-difluorophenyl)pyridazine]
- Ki [2, 4]: < 1000 nM

Compound: CCC1CCCCN1C(=O)c1cccc(N2CCN(CC(=O)N3CCN(C4CCC4)CC3)CC2)c1 (centres unmarked) [Compound 638, 1-cyclobutyl-4-[(4-{3-[(2-ethylpiperidin-1-yl)carbonyl]phenyl}piperazin-1-yl)acetyl]piperazine]
- Ki [2, 6]: < 1000 nM

Compound: CC(=O)c1cccc(-c2ccc(N3CCN(CC(=O)N4CCN(C5CCC5)CC4)CC3)cc2)c1 [Compound 308, 1-(4′-{4-[2-(4-cyclobutylpiperazin-1-yl)-2-oxoethyl]piperazin-1-yl}biphenyl-3-yl)ethanone]
- Ki [2, 7]: < 1000 nM

Compound: Cc1cccc(OC(C)C(=O)N2CCN(CC(=O)N3CCN(C4CCC4)CC3)CC2)c1C (centres unmarked) [Compound 571, 1-cyclobutyl-4-({4-[2-(2,3-dimethylphenoxy)propanoyl]piperazin-1-yl}acetyl)piperazine]
- Ki [2, 8]: < 1000 nM

Compound: O=C(CN1CCN(c2ccc(-c3ccc4c(c3)OCO4)nn2)CC1)N1CCN(C2CCC2)CC1 [Compound 986, 3-(1,3-benzodioxol-5-yl)-6-{4-[2-(4-cyclobutylpiperazin-1-yl)-2-oxoethyl]piperazin-1-yl}pyridazine]
- Ki [2, 4]: < 1000 nM

Compound: O=C(CN1CCN(c2ccc(-c3ccc(F)cc3F)cc2)CC1)N1CCN(C2CCC2)CC1 [Compound 676, 1-cyclobutyl-4-{[4-(2′,4′-difluorobiphenyl-4-yl)piperazin-1-yl]acetyl}piperazine]
- Ki [2, 6]: < 1000 nM

Compound: Cc1cccc(N2CCN(CC(=O)N3CCN(C4CCC4)CC3)CC2C)c1 (centres unmarked) [Compound 1104, 4-[2-(4-cyclobutylpiperazin-1-yl)-2-oxoethyl]-2-methyl-1-(3-methylphenyl)piperazine]
- Ki [2, 4]: < 1000 nM

Compound: O=C(NC1CCCCCC1)c1cccc(N2CCN(CC(=O)N3CCN(C4CCC4)CC3)CC2)c1 [Compound 1083, 3-{4-[2-(4-cyclobutylpiperazin-1-yl)-2-oxoethyl]piperazin-1-yl}-N-cycloheptylbenzamide]
- Ki [2, 4]: < 1000 nM

Compound: COc1ccc(N2CCN(CC(=O)N3CCN(C4CCC4)CC3)CC2)cc1OC [Compound 733, 1-cyclobutyl-4-{[4-(3,4-dimethoxyphenyl)piperazin-1-yl]acetyl}piperazine]
- Ki [2, 6]: < 1000 nM

Compound: O=C(CN1CCN(c2ccc(-c3cccc(OC(F)(F)F)c3)nn2)CC1)N1CCN(C2CCC2)CC1 [Compound 1024, 3-{4-[2-(4-cyclobutylpiperazin-1-yl)-2-oxoethyl]piperazin-1-yl}-6-[3-(trifluoromethoxy)phenyl} pyridazine]
- Ki [2, 4]: < 1000 nM

Compound: CC(C)N1CCN(C(=O)CN2CCN(c3ccc(Cl)c(Cl)c3)CC2)CC1 [Compound 283, 1-(3,4-dichlorophenyl)-4-[2-(4-isopropylpiperazin-1-yl)-2-oxoethyl]piperazine]
- Ki [2, 7]: < 1000 nM
